Source: PubChem BioAssay AID463182 (University of Pittsburgh Molecular Library Screening Center, 2010)
Activity calls are given as the source filed them. The rule behind the calls is not given here.

These compounds were tested against Furin (Homo sapiens) (UniProt P09958) (assay: furin inhibitor potency, dose response, biochemical, fluorescence intensity, IC50 (AID 463182)). Details: purified furin, fluorogenic peptide substrate cleavage.
Sequence of Furin (Homo sapiens) (P09958 108-714 limits assumed): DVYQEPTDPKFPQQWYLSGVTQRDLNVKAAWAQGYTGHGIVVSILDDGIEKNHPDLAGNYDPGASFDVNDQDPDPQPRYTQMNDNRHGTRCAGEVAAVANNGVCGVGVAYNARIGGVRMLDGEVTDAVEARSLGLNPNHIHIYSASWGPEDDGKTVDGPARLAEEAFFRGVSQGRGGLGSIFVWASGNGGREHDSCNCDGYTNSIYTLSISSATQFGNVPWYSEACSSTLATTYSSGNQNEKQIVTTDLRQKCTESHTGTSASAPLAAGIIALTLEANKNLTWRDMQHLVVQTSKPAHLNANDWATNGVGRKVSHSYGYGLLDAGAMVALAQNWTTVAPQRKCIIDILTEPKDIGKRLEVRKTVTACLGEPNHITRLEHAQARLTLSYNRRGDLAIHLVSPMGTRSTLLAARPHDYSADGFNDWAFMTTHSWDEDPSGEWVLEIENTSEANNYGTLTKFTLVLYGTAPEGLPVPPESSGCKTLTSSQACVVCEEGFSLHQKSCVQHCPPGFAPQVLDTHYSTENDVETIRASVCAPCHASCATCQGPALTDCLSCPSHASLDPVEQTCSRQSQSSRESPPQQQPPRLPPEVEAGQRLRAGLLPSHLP

IC50, inactive:
CC1(C)CC(=O)C(C=Nc2cccnc2)=C(O)C1 > 50 µM
CC1(C)CC(=O)C(/C=N/n2cnc3ccccc3c2=O)=C(O)C1 > 50 µM
Cc1cccc(/N=C/C2=C(O)CC(C)(C)CC2=O)n1 > 50 µM
